Laboratory results taken from ChEMBL document CHEMBL1149937, “A new class of dinucleotide analogues. The synthesis of 3-O-thymidylyl(5-deoxy-5-selene-thymidylyl)-Se-phosphoroselenolate, its O-methyl ester and methanephosphonate derivatives” (Bioorg Med Chem Lett, 1994).

Key:
Format in all cases: functional, cell-based
Conditions in all cases: Homo sapiens
ATH-8 cell line [1] = assay: Antiviral activity against HIV-1 using CD4+ ATH8 cells at a concentration of 25 uM; moderately toxic
ATH-8 cell line [2] = assay: Antiviral activity against HIV-1 using CD4+ ATH8 cells at a concentration of 5 uM; No detectable activity
ATH-8 cell line [3] = assay: Antiviral activity against HIV-1 using CD4+ ATH8 cells at a concentration of 25 uM; No detectable activity

Compound	Activity (ATH-8 cell line [1])	Activity (ATH-8 cell line [2])	Activity (ATH-8 cell line [3])
Cc1cn([C@H]2C[C@H](OP(=O)(O)[Se]C[C@H]3O[C@@H](n4cc(C)c(=O)[nH]c4=O)C[C@@H]3O)[C@@H](CO)O2)c(=O)[nH]c1=O	Toxic	No activity	
COP(=O)(O[C@H]1C[C@H](n2cc(C)c(=O)[nH]c2=O)O[C@@H]1CO)[Se]C[C@H]1O[C@@H](n2cc(C)c(=O)[nH]c2=O)C[C@@H]1O (some centres undefined)		No activity	No activity
